Data: patent US20200108043A1, “COMPOUNDS AND COMPOSITIONS FOR EXTENDING LIFESPAN OF A SUBJECT” (YALE UNIVERSITY, priority 2017, published 2020)
“Also recorded” adds a separate entry of the source.

How the values were obtained:
Saccharomyces cerevisiae = test: High-Life (High throughput replicative Lifespan measurement) flow cytometry assay in MEP yeast; format: cell-based; settings: fresh samples from secondary source, 24 hours of culture
C. elegans = test: Roundworm (C. elegans) lifespan extension; format: in vivo, Caenorhabditis elegans; settings: 10 μM in NGM plates, treated for duration of lifespan, vs control
Procedure: Synchronized animals were obtained using the egg-laying method, allowing young […] eggs for 4 hours on bacteria-seeded plates. For each treatment group, 120 synchronized day-1 adults were used. All experiments were carried out at 20° C. Treatment groups were blinded. Nematode growth media (NGM) plates were made for each treatment group: Negative control (DMSO), Mycophenolic Acid (10 μM in DMSO), and Terreic Acid (10 μM in DMSO). The compounds were added to NGM media before pouring the plates. The plates were then dried overnight before moving them to 4° C. to prevent degradation of the compounds. Plates were seeded with 100 μL of 10× concentrated OP50 E. coli, and dried overnight at room temperature. Plates were UV treated with a UVP CL-1000 Ultraviolet Crosslinker, run twice on the energy setting ‘9999’ for about 5 minutes each run. Worms were transferred to new plates every 2-4 days. Viability was scored every day, with death determined by lack of response to a platinum wire. Missing worms, or those that died due to internal hatching were censored.

proteasome = molecular target: T1, proteasome (Saccharomyces cerevisiae, UniProt P30656); test: Proteasome assay with fluorogenic substrate Suc-LLVY-AMC on yeast protein extracts; format: biochemical; settings: wild-type (BY4741) cells, presence vs absence of MPA
T1 construct: with 50 μg of total protein in 200 μL of lysis buffer; endogenous in cells; host or cells: S. cerevisiae BY4741 wild-type or ΔUBR2 cells, glass-bead lysate (total protein extract)
Procedure: For protein extraction, 50 mL of cells were grown for 18 hours to an OD600 of approximately 0.8, then transferred to a 50 mL conical tube and centrifuged at 4255×g for 5 minutes at room temperature. The supernatant was discarded, and the cells were re-suspended in 150 μL of cold lysis buffer (50 mM Tris-HCl, pH 7.5, 0.5 mM EDTA, 5 mM MgCl2, with complete ULTRA mini protease inhibitor tablets, EDTA free) and transferred to a 1.5 mL tube. A ¼ volume of 500-750 μm glass beads (Acros Organics 397641000) was added to each tube. For 10 rounds, the tubes were chilled in ice water for 1 minute, then vortexed at maximum speed for 30 seconds to physically rupture the cells, and returned to the ice water. Samples were then spun for 3 minutes at 2500×g and 4° C., and the supernatant was transferred to a fresh tube. The solution was further clarified by centrifugation at 8000×g for 10 minutes at 4° C., and the supernatant was transferred to a fresh tube. Protein concentration was measured using a Nanodrop measuring the absorbance of the sample at 280 nm.
The proteasome assay used was described in Kruegel, et al. PLoS Genet. 7, (2011). The assay was performed in a 96-well clear-bottom plate (Costar 3603) with 50 μg of total protein in 200 μL of lysis buffer. The fluorogenic proteasome substrate Suc-LLVY-AMC (Bachem 1-1395) was added to a final concentration of 100 μM. Fluorescence intensity with an excitation wavelength of 380 nm and an emission wavelength of 460 nm was recorded at 5-minute intervals using a Neo2 plate reader (BioTek) set to mix constantly and maintain 30° C. Negative control reactions were performed in the presence of 50 μM MG132 (Sigma 474787), a proteasome inhibitor.

S. cerevisiae = format: cell-based
Procedure: To obtain the single-cell level data for the age and generation-durations of replicatively aging mother cells, data reported in Liu, P., et al., Cell Rep. 634-644 (2015) was re-analyzed. The data was collected in the same media condition (CSM 2% glucose) as reported elsewhere herein. Cells were grown for ˜24 hours in CSM 2% glucose prior to loading to the microfluidic device. Once cells were loaded, media was swapped to provide CSM 2% glucose control media (untreated), media containing DMSO as a vehicle control (American Bio AB00435), media containing 10 μM terreic acid (Sigma SML0480), media containing 10 μM mycophenolic acid (Sigma M5255), or media containing another compound at the indicated concentration. An automated microscope was used to track […], and replicative lifespan was later determined by counting the number of daughters produced before death. In the case of compound validation, only newborn cells were included in the lifespan experiment. To compare the replicative lifespan of labeled and unlabeled cells, only cells that were present within the traps at the start of the experiment were included. For these experiments, cells were loaded to the microfluidic device at an increased rate of 100 μL/min to increase the number of trapped mother cells. Green fluorescent images were also taken at the start of the experiment to confirm that the cells were visibly labeled.
Differences in lifespan characteristics were assessed through Log-Rank test using MATLAB with a cut-off value of P=0.05. The script for Log-Rank test was downloaded from MATLAB. Differences in proteasome activity were assessed using the unpaired, two-tailed, parametric t-test function of the GraphPad Prism software.
The Longevity Placement Test (LPT) was designed as a mutually exclusive, collectively exhaustive test to determine the relationship of a longevity intervention to a known genetic regulator of lifespan. For a given intervention that extends lifespan, any of three possible relationships may exist relative to a known genetic regulator of lifespan. (1) The intervention may act to extend lifespan independently from the known regulator. (2) The […] may act downstream from the known regulator, converging on a single component of the known regulator's lifespan pathway. (3) The intervention may act upstream from or upon the known regulator, ultimately modulating lifespan through the genetic regulator.
In Step 1 of the LPT, the longevity intervention is applied to a strain in which a genetic regulator of lifespan is deleted. In the event that lifespan extension from the longevity intervention is observed in this background, only possibilities (1) and (2) above remain valid (FIG. 7B). If no lifespan extension is observed, then possibilities (2) and (3) remain valid. Possibility (2) cannot be ruled out in this step, since non-saturating action by the genetic regulator could leave room for lifespan extension by the longevity intervention, while saturating action would preclude it.
In Step 2 of the LPT, an epistatic agent, which prevents lifespan extension from the longevity agent, is applied to a strain in which some upstream member of the genetic regulator's lifespan pathway has been modified to extend lifespan. This step differentiates possibility (2) from the remaining possibility after Step 1. In the event that lifespan extension from the genetic regulator's pathway is suppressed by the epistatic agent, this determines that possibility (2) is correct. In the event that no epistasis is observed, the remaining possibility, (1) or (3), is correct (FIG. 7C).

With `COc1c(C)c2c(c(O)c1C/C=C(\C)CCC(=O)O)C(=O)OC2` [mycophenolic acid] the “dose-response: cell survival in High-Life” value (Saccharomyces cerevisiae) was “clear concentration-dependent effects”, the “lifespan of C. elegans” value (C. elegans) was “measurable extension of lifespan; also recorded: statistically significant lifespan extension” and the “proteasome activity in wild-type cells” value (proteasome) was “did not activate the proteasome”. The “lifespan extension with treatment for only part of the lifespan” value (S. cerevisiae; 10 μM MPA only first 24 hours or only after first 24 hours, compared to whole-lifespan treatment) was “reduced lifespan extension compared to whole-lifespan treatment”, the “lifespan extension with pulse treatment” value (S. cerevisiae; 10 μM MPA, 6-hour pulse between 24th and 30th hour) was “little to no lifespan extension” and the “extension of mean RLS” value (S. cerevisiae; 10 μM compound, wild-type haploid cells, Replicator device) was 20%. For the same compound, the “lifespan in ΔSIR2ΔFOB1 background (LPT step 1)” value (S. cerevisiae; absence of SIR2, ΔSIR2ΔFOB1 background) was “able to extend the lifespan”, the “lifespan in ΔHXK2 strain (LPT step 1)” value (S. cerevisiae; long-lived ΔHXK2 strain) was “further extended lifespan” and the “lifespan in ΔTOR1 strain (LPT step 1)” value (S. cerevisiae; long-lived ΔTOR1 strain) was “further extended lifespan”. For the same compound, the “replicative lifespan (RLS) with and without supplemental guanine” value (S. cerevisiae; wild-type haploid yeast BY4741, MPA without supplemental guanine vs control and guanine supplemented) was “extended longevity”, the “RLS in ΔPRE9 strain” value (S. cerevisiae; ΔPRE9 strain) was “extends RLS” and the “RLS in ΔUBR2 strain (LPT step 1)” value (S. cerevisiae; ΔUBR2 strain) was “moderately, but not significantly, extended RLS”.
